Literature values, collected in US20030072777A1, “Combinatorial anti-acne compositions” (priority 2001, published 2003).
Read-outs that look alike come from different tables or passages of the source.

What was measured:
P. acnes = conditions: 5 percent benzoyl peroxide two times daily for five days
[1] = test system: inflammatory lesions and comedones of acne vulgaris
sebaceous glands = conditions: retinoid treatment

SMILES | Reduction of P. acnes population (P. acnes) | Average percent reduction of non-inflamed lesions (mean comedone counts) ([1]; Week 2, data from Chalker et al. FIG. 1) [%] | Average percent reduction of inflamed lesions (mean inflammatory lesion counts) ([1]; Week 2, data from Chalker et al. FIG. 4) [%] | Average percent reduction of non-inflamed lesions (mean comedone counts) ([1]; Week 4, data from Chalker et al. FIG. 1) [%] | Average percent reduction of inflamed lesions (mean inflammatory lesion counts) ([1]; Week 4, data from Chalker et al. FIG. 4) [%] | Average percent reduction of non-inflamed lesions (mean comedone counts) ([1]; Week 6, data from Chalker et al. FIG. 1) [%] | Average percent reduction of inflamed lesions (mean inflammatory lesion counts) ([1]; Week 6, data from Chalker et al. FIG. 4) [%] | Shrinkage of the glands (sebaceous glands)
O=C(OOC(=O)c1ccccc1)c1ccccc1 [5.0% Benzoyl peroxide, Benzoyl peroxide] | more than 95% | 12 | 27 | 15 | 21 | 28 | 46 | –
CC1=C(/C=C/C(C)=C/C=C/C(C)=C\C(=O)O)C(C)(C)CCC1 [isotretinoin, 13-cis retinoic acid] | – | – | – | – | – | – | – | about 90%
